Data taken from patent publication US6432982B1, “Benzothiophenes, and formulations and methods using same” (Eli Lilly and Company, priority 1996, dated 2002).
Marks after values point to notes of the source that are not given here.

How the values were obtained:
[1] = test system: uterine eosinophil peroxidase; assay: Uterine Eosinophil Peroxidase (EPO) Assay; assay type: in vivo, Sprague Dawley rats; conditions: for Uterine Eosinophil (Vmax) (Eosinphil peroxidase Vmaxium): OVX rats, oral, daily for 4 days
Source text: (§1) Seventy-five day old female Sprague Dawley rats (weight range of 200 to 225 g) are obtained from Charles River Laboratories (Portage, Mich.). The animals are either bilaterally ovariectomized (OVX) or exposed to a Sham surgical procedure at Charles River Laboratories, and then shipped after one week. Upon arrival, they are housed in metal hanging cages in groups of 3 or 4 per cage and had ad libitum access to food (calcium content approximately 0.5%) and water for one week. Room temperature is maintained at 22.2°±1.7° C. with a minimum relative humidity of 40%. The photoperiod in the room is 12 hours light and 12 hours dark.
(§2) After a one week acclimation period (therefore, two weeks post-OVX) daily dosing with test compound is initiated. 17α-ethynyl estradiol or the test compound are given orally, unless otherwise stated, as a suspension in 1% carboxymethylcellulose or dissolved in 20% cyclodextrin. Animals are dosed daily for 4 days. Following the dosing regimen, animals are weighed and anesthetized with a ketamine: Xylazine (2:1, V:V) mixture and a blood sample is collected by cardiac puncture. The animals are then sacrificed by asphyxiation with CO2, the uterus is removed through a midline incision, and a wet uterine weight is determined.
Uteri are kept at 4° C. until time of enzymatic analysis. The uteri are then homogenized in 50 volumes of 50 mM Tris buffer (pH−8.0) containing 0.005% Triton X-100. Upon addition of 0.01% hydrogen peroxide and 10 mM O-phenylenediamine (final concentrations) in Tris buffer, increase in absorbance is monitored for one minute at 450 nm. The presence of eosonophils in the uterus is an indication of estrogenic activity of a compound. The maximal velocity of a 15 second interval is determined over the initial, linear portion of the reaction curve.

[2] = test system: ovariectomized (OVX) rats; assay: Serum cholesterol analysis in ovariectomized rats; assay type: in vivo, Sprague Dawley rats; conditions: for Serum Cholest. % Dec. (Serum cholesterol decrease versus ovariectomized controls): oral, daily for 4 days
Procedure: (§3) In the examples illustrating the methods, a post-menopausal model is used in which effects of different treatments upon circulating lipids are determined.
as §1, §2
Blood samples are allowed to clot at room temperature for 2 hours, and serum is obtained following centrifugation for 10 minutes at 3000 rpm. Serum cholesterol is determined using a Boehringer Mannheim Diagnostics high performance cholesterol assay. Briefly the cholesterol is oxidized to cholest-4-en-3-one and hydrogen peroxide. The hydrogen peroxide is then reacted with phenol and 4-aminophenazone in the presence of peroxidase to produce a p-quinone imine dye, which is read spectrophotemetrically at 500 nm. Cholesterol concentration is then calculated against a standard curve. The entire assay is automated using a Biomek Automated Workstation.

[3] = test system: uterus of ovariectomized (OVX) rats; assay: Uterine weight in ovariectomized rat post-menopausal model; assay type: in vivo, Sprague Dawley rats; conditions: for Uterine Weight % inch (Uterine Weight % increase versus the ovarierectomized controls): oral, daily for 4 days
Procedure: as §3, §1, §2

[4] = test system: MCF-7 breast adenocarcinoma cells; assay: MCF-7 Proliferation Assay; assay type: cell-based; conditions: Homo sapiens, MCF7; tritiated thymidine incorporation, 48 hours with drug, versus the control (DMSO); read-out: IC50, inhibition of proliferation of MCF-7 cells
Procedure: MCF-7 breast adenocarcinoma cells (ATCC HTB 22) are maintained in MEM (minimal essential medium, phenol red-free, Sigma, St. Louis, Mo.) supplemented with 10% fetal bovine serum (FBS) (V/V), L-glutamine (2 mM), sodium pyruvate (1 mM), HEPES {(N-[2-hydroxyethyl]piperazine-N′-[2-ethanesulfonic acid]10 mM}, non-essential amino acids and bovine insulin (1 ug/mL) (maintenance medium). Ten days prior to assay, MCF-7 cells are switched to maintenance medium supplemented with 10% dextran coated charcoal stripped fetal bovine serum (DCC-FBS) assay medium) in place of 10% FBS to deplete internal stores of steroids. MCF-7 cells are removed from maintenance flasks using cell dissociation medium (Ca++/Mg++ free HBSS (phenol red-free) supplemented with 10 mM HEPES and 2 mM EDTA). Cells are washed twice with assay medium and adjusted to 80,000 cells/mL. Approximately 100 μL (8,000 cells) are added to flat-bottom microculture wells (Costar 3596) and incubated at 37° C. in a 5% CO2 humidified incubator for 48 hours to allow for cell adherence and equilibration after transfer. Serial dilutions of drugs or DMSO as a diluent control are prepared in assay medium and 50 μL transferred to triplicate microcultures followed by 50 μL assay medium for a final volume of 200 μL. […] Samples are counted by liquid scintillation using a Wallac BetaPlace β counter. […]

[5] = compared to the ovariectomized animals, EE2 orally at 0.1 mg/kg/day

| Compound | Uterine Eosinophil (Vmax) (Eosinphil peroxidase Vmaxium) ([1]; dose 10.0 mg/kg) | Uterine Weight % inch (Uterine Weight % increase versus the ovarierectomized controls) ([3]; dose 10.0 mg/kg) | Uterine Eosinophil (Vmax) (Eosinphil peroxidase Vmaxium) ([1]; dose 0.1 mg/kg) | Uterine Weight % inch (Uterine Weight % increase versus the ovarierectomized controls) ([3]; dose 0.1 mg/kg) | Uterine Eosinophil (Vmax) (Eosinphil peroxidase Vmaxium) ([1]; dose 1.0 mg/kg) | Uterine Weight % inch (Uterine Weight % increase versus the ovarierectomized controls) ([3]; dose 1.0 mg/kg) [%] | IC50 [4] [nM] | Serum Cholest. % Dec. (Serum cholesterol decrease versus ovariectomized controls) ([2]; dose 10.0 mg/kg) | eosinophil infiltration into the uterus (in words) ([1]; stromal layer of ovariectomized rat uteri) | effect on serum cholesterol (in words) [2, 5] | Serum Cholest. % Dec. (Serum cholesterol decrease versus ovariectomized controls) ([2]; dose 0.1 mg/kg) | effect on uterine weight (in words) [3, 5] | Serum Cholest. % Dec. (Serum cholesterol decrease versus ovariectomized controls) ([2]; dose 1.0 mg/kg) |
| --- | --- | --- | --- | --- | --- | --- | --- | --- | --- | --- | --- | --- | --- |
| Cl.O=C(c1ccc(OCCN2CCCCC2)cc1Cl)c1c(-c2ccc(O)cc2)sc2cc(O)ccc12 [compound 8, [2-(4-Hydroxyphenyl)-6-hydroxybenzo[b]thien-3-yl][4-[2-(1-piperidinyl)ethoxy]2-chlorophenyl]methanone Hydrochloride] | 12.0 | 37.5* % | – | – | – | – | – | 42.0* % | – | – | – | – | – |
| C#C[C@]1(O)CC[C@H]2[C@@H]3CCc4cc(O)ccc4[C@H]3CC[C@@]21C [EE2, 17α-ethynyl estradiol, reference compound] | – | – | 205.8* | 207.5* % | – | – | – | – | substantial and expected increase in eosinophil infiltration | caused a decrease in serum cholesterol | 87.3* % | substantially greater than the uterine weight of the ovariectomized animals | – |
| Cc1cc(C(=O)c2c(-c3ccc(O)cc3)sc3cc(O)ccc23)cc(C)c1OCCN1CCCCC1.Cl [compound 5, [2-(4-Hydroxyphenyl)-6-hydroxybenzo[b]thien-3-yl][4-[2-(1-piperidinyl)ethoxy]3,5-dimethylphenyl]methanone Hydrochloride] | 25.9* | 27.4% | 4.0 | −24.4% | 7.2 | −16.4 | 40 | 74.9* % | – | – | 33.8* % | – | 55.5* % |
| Cc1cc(C(=O)c2c(-c3ccc(O)cc3)sc3cc(O)ccc23)cc(C(C)(C)C)c1OCCN1CCCCC1.Cl [compound 6, [2-(4-Hydroxyphenyl)-6-hydroxybenzo[b]thien-3-yl][4-[2-(1-piperidinyl)ethoxy]-3-t-butyl-5-methylphenyl]methanone Hydrochloride] | – | – | – | – | 2.8 | −35.7 | – | – | – | – | – | – | 55.2* % |

The next lines start with results.

| Uterine Eosinophil (Vmax) (Eosinphil peroxidase Vmaxium) ([1]; dose 10.0 mg/kg) | Uterine Weight % inch (Uterine Weight % increase versus the ovarierectomized controls) ([3]; dose 10.0 mg/kg) | Uterine Eosinophil (Vmax) (Eosinphil peroxidase Vmaxium) ([1]; dose 0.1 mg/kg) | Uterine Weight % inch (Uterine Weight % increase versus the ovarierectomized controls) ([3]; dose 0.1 mg/kg) | Uterine Eosinophil (Vmax) (Eosinphil peroxidase Vmaxium) ([1]; dose 1.0 mg/kg) | Uterine Weight % inch (Uterine Weight % increase versus the ovarierectomized controls) ([3]; dose 1.0 mg/kg) [%] | IC50 [4] [nM] | Compound | Serum Cholest. % Dec. (Serum cholesterol decrease versus ovariectomized controls) ([2]; dose 10.0 mg/kg) | eosinophil infiltration into the uterus (in words) ([1]; stromal layer of ovariectomized rat uteri) | effect on serum cholesterol (in words) [2, 5] | Serum Cholest. % Dec. (Serum cholesterol decrease versus ovariectomized controls) ([2]; dose 0.1 mg/kg) | effect on uterine weight (in words) [3, 5] | Serum Cholest. % Dec. (Serum cholesterol decrease versus ovariectomized controls) ([2]; dose 1.0 mg/kg) |
| --- | --- | --- | --- | --- | --- | --- | --- | --- | --- | --- | --- | --- | --- |
| 30.9 | 46.1* % | – | – | – | – | – | Cl.O=C(c1ccc(OCCN2CCCCC2)c(Cl)c1)c1c(-c2ccc(O)cc2)sc2cc(O)ccc12 [compound 7, [2-(4-Hydroxyphenyl)-6-hydroxybenzo[b]thien-3-yl][4-[2-(1-piperidinyl)ethoxy]3-chlorophenyl]methanone Hydrochloride] | 62.2* % | – | – | – | – | – |
| 2.7 | 12.5% | 5.4 | 18.4% | 4.5 | 14.9 | – | Cl.O=C(c1ccc(OCCN2CCCCC2)c(F)c1)c1c(-c2ccc(O)cc2)sc2cc(O)ccc12 [compound 1, [2-(4-Hydroxyphenyl)-6-hydroxybenzo[b]thien-3-yl][4-[2-(1-piperidinyl)ethoxy]3-fluorophenyl]methanone Hydrochloride] | 64.1* % | – | – | 45.1* % | – | 59.5* % |
| 7.8 | 16.8% | – | – | – | – | – | Cl.N#Cc1cc(C(=O)c2c(-c3ccc(O)cc3)sc3cc(O)ccc23)ccc1OCCN1CCCCC1 [compound 9, [2-(4-Hydroxyphenyl)-6-hydroxybenzo[b]thien-3-yl][4-[2-(1-piperidinyl)ethoxy]3-cyanophenyl]methanone Hydrochloride] | 38.8* % | – | – | – | – | – |
